# Read-outs that look alike come from different tables or passages of the source.
# Target: C. briggsae complex I (Caenorhabditis briggsae, UniProt A8X476+A8XFG2+Q8HEC4)
# Assay: In vitro complex I activity assay, C. briggsae mitochondria
# Assay type: biochemical
# Conditions: for remaining activity at 0.06 µM / remaining activity at 0.13 µM / remaining activity at 0.313 µM / remaining activity at 0.625 µM / remaining activity at 1.5 µM / remaining activity at 3 µM / remaining activity at 15 µM / remaining activity at 37.5 µM / remaining activity at 75 µM / remaining activity at 0.0001 µM / remaining activity at 0.0005 µM / remaining activity at 0.001 µM / remaining activity at 0.0025 µM / remaining activity at 0.005 µM / remaining activity at 0.025 µM / remaining activity at 0.063 µM / remaining activity at 0.125 µM / remaining activity at 0.013 µM: C. briggsae mitochondria, read-out: in vitro complex I activity relative to solvent control; for IC50: purified mitochondria
# Protocol: Mitochondria were isolated from the following free-living nematode strains: C. elegans—N2, CB3474, ECA882, ECA917, ECA1075, ECA1080; C. briggsae—AF16; P. pacificus—PS312; and P. hermaphrodita—B178. With the exception of the P. hermaphrodita strain B178, adult worms of each strain were grown in bulk through liquid culture to obtain mitochondria in sufficient quantities. Due to poor growth in liquid media, mixed stage populations of P. hermaphrodita were washed off and collected from NGM plates seeded with OP50. The isolation of mitochondria from all free-living nematode strains followed the protocol previously outlined in Burns et al.[24]. In brief, a 1 L saturated culture of E. coli HB101 was concentrated 20-fold in 50 mL complete S-medium. ~500,000 L1 worms synchronized from an embryo preparation performed the day prior were added to the S-media/HB101 suspension and grown to adulthood over the course of 3.5 days at 20 °C with shaking at 165 rpm. Following growth, worms were collected in 10 ×15 mL conical tubes and washed 7 times in M9 buffer. Worm suspensions were then combined into a single 15 mL conical tube and diluted to a final volume of 15 mL with M9 buffer. 1 mL aliquots of worm suspension were then distributed to 15 × 1.5 mL screw-cap microcentrifuge tubes and were pelleted at 500 g for 1 min. Excess M9 was aspirated without disturbing the worm pellet. 600 μL ice-cold isolate buffer A (250 mM sucrose, 10 mM Tris (pH 7.5), 1 mM EDTA, 1 mM PMSF (freshly prepared)) and 300 μL cold glass beads were then added to each tube. Tubes were incubated on ice for 10 min, and the worms were then lysed by bead beating (6 x 30 s, with 1 min cooling intervals). Tubes containing worm lysate were centrifuged at 1,000 g for 10 min at 4 °C and the supernatant was transferred to 15 new microcentrifuge tubes on ice. The tubes were centrifuged a second time at 1,000 g for 10 min at 4 °C and the supernatant was once again transferred to 15 new microcentrifuge tubes on ice. These tubes were then centrifuged at 16,000 g for 10 min at 4 °C. The resulting mitochondrial pellet was washed twice by re-suspension in 300 μL of ice-cold isolate buffer B (250 mM sucrose, 10 mM Tris (pH 7.5), 1 mM EDTA). Following the final wash, isolation buffer was aspirated from each tube and the pellets were flash-frozen in ethanol/dry ice and stored at −80 °C until needed.
# The enzymatic activities of individual ETC complexes (I-IV) were assessed spectrophotometrically in isolated mitochondria using a Varioskan LUX Multimode plate reader (ThermoFisher Scientific). Mitochondrial pellets previously isolated were thawed on ice and resuspended in ice-cold isolation buffer (250 mM sucrose, 10 mM Tris (pH 7.5), 1 mM EDTA). The BCA assay (Walker, 1994) was used to quantify the protein concentration of mitochondria suspensions; solutions were diluted to a concentration of 0.2 mg/mL for use in all assays. For the complex I assay, mitochondria pellets were freeze-thawed on ice three times to increase enzyme accessibility. […] 20 μL mitochondria suspension was then added/mixed with a pipette to initiate the reaction. Immediately following the addition of mitochondria, absorbance was measured (complex I and II: 600 nm; complex III and IV: 550 nm) in 30 s intervals over 15 min. Enzymatic activity was determined in each reaction by plotting absorbance versus time and calculating the slope of the curve during the initial linear phase of the reaction. […] Percent activity of each complex was calculated by dividing the enzyme-specific activity of each well by the enzyme-specific activity of the corresponding solvent controls.
# Chemical solutions were prepared in complex I assay buffer composed of 25 mM KPi buffer (pH 7.5), 3 mg/mL bovine serum albumin (BSA), 80 μM NADH, 60 μM decylubiquinone, 160 μM DCIP, 2 μM antimycin A and 2 mM KCN.
# For preliminary screens of hit compounds, compounds were screened at 100 μM; data are the average of at least three biological replicates.
# Sequence of C. briggsae complex I (A8X476 31-482): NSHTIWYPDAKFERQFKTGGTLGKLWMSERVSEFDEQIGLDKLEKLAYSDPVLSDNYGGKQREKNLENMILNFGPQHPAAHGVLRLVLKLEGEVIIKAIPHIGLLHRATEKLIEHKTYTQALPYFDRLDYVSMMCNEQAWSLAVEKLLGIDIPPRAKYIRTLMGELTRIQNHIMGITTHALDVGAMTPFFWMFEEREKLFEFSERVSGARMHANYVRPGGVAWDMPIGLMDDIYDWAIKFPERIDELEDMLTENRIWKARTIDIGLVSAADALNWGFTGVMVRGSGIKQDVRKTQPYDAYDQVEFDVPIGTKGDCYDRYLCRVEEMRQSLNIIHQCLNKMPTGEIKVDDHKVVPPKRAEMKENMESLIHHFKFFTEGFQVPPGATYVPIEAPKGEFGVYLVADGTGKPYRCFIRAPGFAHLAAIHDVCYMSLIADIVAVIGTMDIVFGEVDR
# Sequence of C. briggsae complex I (A8XFG2 17-199): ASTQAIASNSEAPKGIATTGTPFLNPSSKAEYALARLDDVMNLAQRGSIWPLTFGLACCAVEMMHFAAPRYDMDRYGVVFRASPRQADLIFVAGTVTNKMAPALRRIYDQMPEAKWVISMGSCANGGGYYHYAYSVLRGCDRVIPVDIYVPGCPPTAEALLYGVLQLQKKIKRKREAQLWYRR
# Sequence of C. briggsae complex I (Q8HEC4 whole entry): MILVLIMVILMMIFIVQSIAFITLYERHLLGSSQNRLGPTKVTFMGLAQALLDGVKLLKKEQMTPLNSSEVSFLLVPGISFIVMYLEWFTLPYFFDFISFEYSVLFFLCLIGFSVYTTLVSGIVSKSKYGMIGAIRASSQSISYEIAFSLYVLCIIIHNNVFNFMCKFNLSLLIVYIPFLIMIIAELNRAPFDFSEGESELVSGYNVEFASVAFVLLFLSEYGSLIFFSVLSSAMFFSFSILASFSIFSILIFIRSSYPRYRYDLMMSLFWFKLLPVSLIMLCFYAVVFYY
SMILES,remaining activity at 0.0001 µM (Mean),remaining activity at 0.0001 µM (single replicate),remaining activity at 0.0005 µM (Mean),remaining activity at 0.0005 µM (single replicate),remaining activity at 0.001 µM (Mean),remaining activity at 0.001 µM (single replicate),remaining activity at 0.0025 µM (Mean),remaining activity at 0.0025 µM (single replicate),remaining activity at 0.005 µM (Mean),remaining activity at 0.025 µM (Mean),remaining activity at 0.063 µM (Mean),remaining activity at 0.063 µM (single replicate),remaining activity at 0.125 µM (Mean),remaining activity at 0.313 µM (Mean),remaining activity at 0.625 µM (Mean),remaining activity at 1.5 µM (Mean),remaining activity at 3 µM (Mean),remaining activity at 15 µM (Mean),remaining activity at 37.5 µM (Mean),remaining activity at 75 µM (Mean),other results
CC(C)Cc1ccc(C(C)c2nc3ccccc3n2C)cc1 (centres unmarked) [NPD8790],91.5%,87.3%,96.4%,99.9%,102%,99.6%,115%,108%,119%,109%,103%,95.7%,92%,85.6%,74.2%,61.1%,43.1%,16%,11.7%,9.21%,remaining activity at 0.06 µM (Mean of replicates): 103%; remaining activity at 0.06 µM (single replicate): 95.7%; remaining activity at 0.13 µM (Mean of replicates): 92%; remaining activity at 0.13 µM (single replicate): 86.2%; remaining activity at 0.313 µM (Mean of replicates): 85.6%; remaining activity at 0.313 µM (single replicate): 76.1%; remaining activity at 0.625 µM (Mean of replicates): 74.2%; remaining activity at 0.625 µM (single replicate): 81.9%; remaining activity at 1.5 µM (Mean of replicates): 61.1%; remaining activity at 1.5 µM (single replicate): 70%; remaining activity at 3 µM (Mean of replicates): 43.1%; remaining activity at 3 µM (single replicate): 52.6%; remaining activity at 15 µM (Mean of replicates): 16%; remaining activity at 37.5 µM (Mean of replicates): 11.7%; remaining activity at 75 µM (Mean of replicates): 9.21%; remaining activity at 0.125 µM (single replicate): 86.2%; IC50: 1600 nM
Cc1ccccc1OCCCCn1cnc2ccccc21 [Compound 7732524],92.8%,92.9%,91%,90.7%,90.6%,94.1%,91.8%,95.4%,99.8%,74.3%,43.5%,44.1%,26.1%,7.94%,0.818%,1.29%,1.71%,1.4%,1.05%,0.358%,remaining activity at 0.005 µM (single replicate): 102%; remaining activity at 0.013 µM (Mean): 86.4%; remaining activity at 0.013 µM (single replicate): 91.2%; remaining activity at 0.025 µM (single replicate): 77.1%; IC50: 60.3 nM
